Data reported in patent US20260070887A1 (Shenzhen Zhongge Biological Technology Co., Ltd., priority 2022, published 2026).
Where two headings read alike, the source gives them in different places.

Legend:
PK study in ICR mice = format: in vivo, mouse; details: plasma, route and dose not given
How it was run: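 Fasted ICR mice (3/group) dosed intravenously or by oral gavage; plasma sampled up to 24 h. Plasma levels measured by LC-MS/MS after protein precipitation. T½, AUC0-t, CL, Vss and F derived by noncompartmental analysis.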

A2780 cells = assay: A2780 cell anti-proliferation assay; format: cell-based; details: 6 days, Cell Titer-Glo
Procedure: A2780 (ECACC) cells were cultured in RPMI-1640 complete medium (Gibco, A1049101) containing 10% fetal bovine serum (Gibco, 10099-141C), 100 U penicillin and 100 μg/mL streptomycin (Gibco, 15140-122). The Promega kit Cell Titer-Glo (Promega: G7572) was used in this method for test.
A2780 cells were cultured in T75 cell flasks (Corning, 430641) and the cells were placed in a 37° C., 5% CO2 incubator. Cells were passaged when reaching a cell density of 70%-80%, once every five days. To perform the experiment, the test compounds were dissolved in DMSO to prepare a 10 mM stock solution, and the test compounds were added to the 384-well cell test plate (Corning, 3765) at the predetermined concentration (19.5 nM-[…]) using ECHO. A2780 cells were digested and 4000 cells (60 μL medium) were seeded per well in the test plate. The 384-well plate was then centrifuged at 500 rpm for 1 minute, and then placed in a 37° C., 5% CO2 incubator for 6 days of cultivation. Six days later, the cell culture plate was equilibrated for 10 minutes at room temperature, 25 μL of Cell Titer-Glo was added to each well, and the mixture was shaken and mixed well and let stand for 5 minutes. The luminescence values for samples in various wells were read using a microplate reader in Luminescence mode.
The percentage of inhibition of A2780 cell proliferation by the test compound at each concentration was calculated by comparing with the values of the control group (0.2% DMSO). The IC50 values of the compounds were obtained by concentration-inhibition rate nonlinear regression analysis of the test compounds using GraphPad Prism 9.

HT-29 cells = assay: HT-29 cell proliferation (Cell Titer-Glo, 6 days); format: cell-based
How it was run: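 Cells seeded at 4,170 cells/mL in McCoy's 5a with 10% FBS, compound added from DMSO stock, grown 6 days at 37 °C, 5% CO2. Cell Titer-Glo luminescence; inhibition vs 0.3% DMSO control, IC50 by nonlinear regression.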

[1] = both sexes, mouse, read-out: AUC
[2] = both sexes, mouse, read-out: Cmax

Compound | AUC (PK study in ICR mice) [ng·h/mL] | Cmax (PK study in ICR mice) [ng/mL] | IC50 (A2780 cells) [µM] | IC50 (HT-29 cells) [µM] | AUC (PK study in ICR mice; [1]) [ng·h/mL] | Cmax (PK study in ICR mice; [2]) [ng/mL] | IC50 (A2780 cells; Homo sapiens, A2780, 144 h) [µM] | IC50 (HT-29 cells; Homo sapiens, HT-29, 144 h) [µM]
COc1ccc(NC(=O)c2ccc(NS(=O)(=O)CCO)cc2N2CCC(=C(F)F)CC2)c2cc3n(c12)CC(C)(C)OC3 [Example 465, 2-(4-(difluoromethylene)piperidin-1-yl)-4-((2-hydroxyethyl)sulfonamido)-N-(6-methoxy-3,3-dimethyl-3,4-dihydro-1H-[1,4]oxazinyl[4,3-a]indol-9-yl)benzamide] | 72111 | 5780 | > 10 | ≤ 0.2 | – | – | – | –
CC1(C)Cn2c(cc3c(NC(=O)c4ccc(NS(=O)(=O)CCO)cc4N4CCC(=C(F)F)CC4)ccc(C#N)c32)CO1 [Compound 393, N-(6-cyano-3,3-dimethyl-3,4-dihydro-1H-[1,4]oxazino[4,3-a]indol-9-yl)-2-(4-(difluoromethylene)piperidin-1-yl)-4-((2-hydroxyethyl)sulfonamido)benzamide] | – | – | – | – | 22300 | 3840 | > 10 | ≤ 0.2
COc1ccc(NC(=O)c2ccc(NS(=O)(=O)CCO)cc2N2CCC(=C(F)F)CC2)c2cc3n(c12)CCOC3 [Compound 405, 2-(4-(difluoromethylene)piperidin-1-yl)-4-((2-hydroxyethyl)sulfonamido)-N-(6-methoxy-3,4-dihydro-1H-[1,4]oxazinyl[4,3-a]indol-9-yl)benzamide] | 27572 | 4205 | > 10 | ≤ 0.2 | – | – | – | –
N#Cc1ccc(NC(=O)c2ccc(NS(=O)(=O)CCO)cc2N2CCC3(CC2)CC3)c2cc3n(c12)CCC(F)(F)C3 [Example 379] | 36456 | 4043 | 5.3 | ≤ 0.2 | – | – | – | –
CC1(C)Cn2c(nc3c(NC(=O)c4ccc(NS(=O)(=O)CCO)cc4N4CCC(=C(F)F)CC4)cccc32)CO1 [Compound 394, 2-(4-(difluoromethylene)piperidin-1-yl)-N-(3,3-dimethyl-3,4-dihydro-1H-benzo[4,5]imidazo[2,1-c][1,4]oxazin-9-yl)-4-((2-hydroxyethyl)sulfonamido)benzamide] | – | – | – | – | 47800 | 4220 | > 10 | ≤ 0.2
O=C(Nc1ccc(F)c2c1nc1n2CCOC1)c1ccc(NS(=O)(=O)CCO)cc1N1CCC2(CC1)CC2 [Example 308, N-(6-fluoro-3,4-dihydro-1H-benzo[4,5]imidazo[2,1-c][1,4]oxazin-9-yl)-4-((2-hydroxyethyl)sulfonamido)-2-(6-azaspiro[2.5]octan-6-yl)benzamide] | – | – | – | – | 5650 | 1100 | > 10 | ≤ 0.2
CC1Cn2c(cc3c(NC(=O)c4ccc(NS(=O)(=O)CCO)cc4N4CCC5(CC4)CC5)cccc32)C(C)O1 (single isomer, unassigned) [Compound 312-P3, N-(1,3-dimethyl-3,4-dihydro-1H-[1,4]oxazino[4,3-a]indol-9-yl)-4-((2-hydroxyethyl)sulfonamido)-2-(6-azaspiro[2.5]oct-6-yl)benzamide] | – | – | – | ≤ 0.2 | 32400 | 2980 | > 10 | –
O=C(Nc1cccc2c1cc1n2CCC(F)(F)C1)c1ccc(NS(=O)(=O)CCO)cc1N1CCC(=C(F)F)CC1 [Example 374, N-(8,8-difluoro-6,7,8,9-tetrahydropyridino[1,2-a]indol-1-yl)-2-(4-(difluoromethylene)piperidin-1-yl)-4-((2-hydroxyethyl)sulfonamido)benzamide] | – | – | – | – | 26500 | 3700 | 8.5 | ≤ 0.2
CC1(C)Cn2c(nc3c(NC(=O)c4ccc(NS(=O)(=O)CCO)cc4N4CCC5(CC4)CC5)cccc32)CO1 [Compound 391, N-(3,3-dimethyl-3,4-dihydro-1H-benzo[4,5]imidazo[2,1-c][1,4]oxazin-9-yl)-4-((2-hydroxyethyl)sulfonamido)-2-(6-azaspiro[2.5]octan-6-yl)benzamide] | – | – | – | – | 38000 | 4370 | > 10 | ≤ 0.2
CC1(C)Cn2c(cc3c(NC(=O)c4ccc(NS(=O)(=O)CCO)cc4N4CCC5(CC4)CC5)ccc(C#N)c32)CO1 [Compound 392, N-(6-cyano-3,3-dimethyl-3,4-dihydro-1H-[1,4]oxazino[4,3-a]indol-9-yl)-4-((2-hydroxyethyl)sulfonamido)-2-(6-azaspiro[2.5]oct-6-yl)benzamide] | – | – | – | – | 50800 | 5080 | 6.1 | ≤ 0.2
